14 compounds from patent US20130035326A1 (AMBIT BIOSCIENCES CORPORATION, priority 2009, published 2013) can be followed below.

The structures appear in SMILES notation. Some results are limits rather than exact numbers.

In experiment [1] the target is T1, FLT3 kinase (Homo sapiens, UniProt P36888).
T1 construct: made in house; host or cells: T7 phage display or HEK-293 cells
T1 sequence (P36888 27-993): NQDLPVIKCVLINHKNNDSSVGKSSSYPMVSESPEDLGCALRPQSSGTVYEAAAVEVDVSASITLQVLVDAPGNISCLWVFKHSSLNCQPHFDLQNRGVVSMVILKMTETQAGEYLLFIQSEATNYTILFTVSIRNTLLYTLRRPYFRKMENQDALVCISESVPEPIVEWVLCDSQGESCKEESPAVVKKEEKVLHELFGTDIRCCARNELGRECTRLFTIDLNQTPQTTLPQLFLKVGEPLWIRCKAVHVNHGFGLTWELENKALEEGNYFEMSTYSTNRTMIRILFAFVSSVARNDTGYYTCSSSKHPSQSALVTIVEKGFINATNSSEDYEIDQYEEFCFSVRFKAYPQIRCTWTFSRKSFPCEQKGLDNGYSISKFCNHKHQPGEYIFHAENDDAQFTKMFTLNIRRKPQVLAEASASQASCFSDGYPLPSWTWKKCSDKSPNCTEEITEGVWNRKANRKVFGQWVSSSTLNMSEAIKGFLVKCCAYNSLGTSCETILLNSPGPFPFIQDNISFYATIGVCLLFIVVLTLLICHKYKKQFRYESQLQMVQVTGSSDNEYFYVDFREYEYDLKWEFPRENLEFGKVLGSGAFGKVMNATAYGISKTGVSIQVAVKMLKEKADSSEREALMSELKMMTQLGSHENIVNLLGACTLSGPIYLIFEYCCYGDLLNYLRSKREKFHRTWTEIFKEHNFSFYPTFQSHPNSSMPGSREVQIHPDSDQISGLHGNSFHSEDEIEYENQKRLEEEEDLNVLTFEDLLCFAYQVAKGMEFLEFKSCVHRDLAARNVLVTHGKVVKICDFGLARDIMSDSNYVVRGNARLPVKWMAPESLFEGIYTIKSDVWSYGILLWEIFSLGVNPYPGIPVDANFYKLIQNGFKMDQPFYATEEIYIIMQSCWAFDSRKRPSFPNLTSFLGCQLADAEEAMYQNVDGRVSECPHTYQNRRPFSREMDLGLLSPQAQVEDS
The experiment is described as follows: Competition binding assay, FLT3 Kd. In short, it runs like this:
(§1)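 Kinases, either T7 phage fusions or HEK-293-expressed and DNA-tagged, competed for immobilised biotinylated affinity ligand against test compound, 1 h at RT in binding buffer with 6 mM DTT. Bound kinase eluted with 0.5 μM free ligand and quantified by qPCR; Kd from 11-point threefold dilutions.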

The target of experiment [2] is T2, KIT kinase (Homo sapiens, UniProt P10721).
T2 construct: made in house; host or cells: T7 phage display or HEK-293 cells
As to the kind of experiment: Competition binding assay, KIT Kd. A digest of the protocol: as §1

For experiment [3], the target named is T3, CSF-1R kinase (Homo sapiens, UniProt P07333).
T3 construct: made in house; host or cells: T7 phage display or HEK-293 cells
The experiment is described as follows: Competition binding assay, CSF-1R Kd. In short, it runs like this: as §1

Experiment [4] relates to MV4-11 cells. As to the kind of experiment: MV4-11 cell proliferation assay (Alamar Blue). Particulars: Homo sapiens, MV4-11, 72 h, 3 days incubation. The class given is cell-based. In short, it runs like this:
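Flt3-ITD MV4-11 cells were serum-starved overnight in Iscove's with 0.5% FBS, then given compound at 9 half-log concentrations (0.5% DMSO) for 3 days at 37° C. Alamar Blue reduction was read after 3 h by fluorescence (560/590 nm). IC50 is the mean of duplicates versus negative control.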
Background: The colour change of resazurin is a common sign of viable cells or microbes.

The target in experiment [5] is kinase panel containing either 359 or 386 distinct kinases. As to the kind of experiment: Selectivity score S10 from competition binding against a panel of kinases. The settings on record: compounds at 10 μM; panel of 359 distinct kinases. How it is done:
Competition binding assays used herein were developed, validated and performed as described in Fabian et al., Nature Biotechnology 2005, 23,329-336. Kinases were produced as fusions to T7 phage (See, Fabian et al. or WO04/015142) or alternatively, the kinases were expressed in HEK-293 cells and subsequently tagged with DNA for PCR detection (See, WO08/005,310). For the binding assays, streptavidin-coated magnetic beads were treated with biotinylated affinity ligands for 30 min at room temperature to generate affinity resins. The liganded beads were blocked with excess biotin and washed with blocking buffer (SeaBlock (Pierce), 1% BSA, 0.05% Tween 20, 1 mM DTT) to remove unbound ligand and to reduce non-specific binding. Binding reactions were assembled by combining kinase, liganded affinity beads, and test compounds in 1× binding buffer (20% SeaBlock, 0.17×PBS, 0.05% Tween 20, 6 mM DTT). Test compounds were prepared as 100× stocks in DMSO and diluted into the aqueous environment. Kds were determined using an eleven point threefold serial dilutions. DMSO or control compounds were was added to control assays lacking a test compound. Primary screen assays were performed in polypropylene 384-well plates in a final volume of 20-40 μL, while Kd determinations were performed in polystyrene 96-well plates in a final volume of 135 μL. The assay plates were incubated at room temperature with shaking for 1 hour to allow the binding reactions to reach equilibrium, and the affinity beads were washed extensively with wash buffer (1×PBS, 0.05% Tween 20) to remove unbound protein. The beads were then resuspended in elution buffer (1×PBS, 0.05% Tween 20, 0.5 μM non-biotinylated affinity ligand) and incubated at room temperature with shaking for 30 min. The kinase concentration in the eluates was measured by quantitative PCR.
A selectivity score (S10) is a quantitative measure of selectivity of a compound against a panel of kinases. An S10 was calculated for a compound by dividing the number of kinases found to have a percent of control (DMSO) less than 10 by the total number of distinct kinases tested (excluding mutant variants). Percent of control (POC) is calculated by subtracting the signal of the control compound (POC=0) from the signal of the test compound and dividing the outcome by the signal of DMSO (POC=100) minus the signal of the control compound. For the compounds disclosed herein, S10 scores were obtained by testing the compounds at 10 μM concentration in a kinase panel containing either 359 or 386 distinct kinases.

T3 sequence (P07333 20-972): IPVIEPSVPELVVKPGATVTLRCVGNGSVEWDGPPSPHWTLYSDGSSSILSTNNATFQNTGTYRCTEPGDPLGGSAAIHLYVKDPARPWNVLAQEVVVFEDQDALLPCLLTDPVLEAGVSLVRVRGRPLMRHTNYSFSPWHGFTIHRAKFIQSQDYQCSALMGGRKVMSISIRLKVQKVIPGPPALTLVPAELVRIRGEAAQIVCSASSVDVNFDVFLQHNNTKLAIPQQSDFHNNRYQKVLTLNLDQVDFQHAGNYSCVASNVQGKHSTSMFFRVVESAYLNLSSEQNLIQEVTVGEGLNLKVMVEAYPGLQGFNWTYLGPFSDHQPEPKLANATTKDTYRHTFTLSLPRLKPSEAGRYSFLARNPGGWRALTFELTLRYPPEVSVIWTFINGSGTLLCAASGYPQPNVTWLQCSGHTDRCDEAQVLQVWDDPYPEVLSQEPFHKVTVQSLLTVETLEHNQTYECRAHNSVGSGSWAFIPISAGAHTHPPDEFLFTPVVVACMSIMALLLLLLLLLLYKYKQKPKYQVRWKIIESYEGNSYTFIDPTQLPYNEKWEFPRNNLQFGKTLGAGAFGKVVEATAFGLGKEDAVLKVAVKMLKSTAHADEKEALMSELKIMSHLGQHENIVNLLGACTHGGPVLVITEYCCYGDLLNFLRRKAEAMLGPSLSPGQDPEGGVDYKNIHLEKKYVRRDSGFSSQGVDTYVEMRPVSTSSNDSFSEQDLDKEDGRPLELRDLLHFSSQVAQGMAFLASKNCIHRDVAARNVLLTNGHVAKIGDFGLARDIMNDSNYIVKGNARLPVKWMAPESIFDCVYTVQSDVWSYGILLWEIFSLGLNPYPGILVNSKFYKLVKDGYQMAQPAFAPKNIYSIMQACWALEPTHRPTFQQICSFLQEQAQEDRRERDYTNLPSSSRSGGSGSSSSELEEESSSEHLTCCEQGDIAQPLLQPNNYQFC
T2 sequence (P10721 26-976): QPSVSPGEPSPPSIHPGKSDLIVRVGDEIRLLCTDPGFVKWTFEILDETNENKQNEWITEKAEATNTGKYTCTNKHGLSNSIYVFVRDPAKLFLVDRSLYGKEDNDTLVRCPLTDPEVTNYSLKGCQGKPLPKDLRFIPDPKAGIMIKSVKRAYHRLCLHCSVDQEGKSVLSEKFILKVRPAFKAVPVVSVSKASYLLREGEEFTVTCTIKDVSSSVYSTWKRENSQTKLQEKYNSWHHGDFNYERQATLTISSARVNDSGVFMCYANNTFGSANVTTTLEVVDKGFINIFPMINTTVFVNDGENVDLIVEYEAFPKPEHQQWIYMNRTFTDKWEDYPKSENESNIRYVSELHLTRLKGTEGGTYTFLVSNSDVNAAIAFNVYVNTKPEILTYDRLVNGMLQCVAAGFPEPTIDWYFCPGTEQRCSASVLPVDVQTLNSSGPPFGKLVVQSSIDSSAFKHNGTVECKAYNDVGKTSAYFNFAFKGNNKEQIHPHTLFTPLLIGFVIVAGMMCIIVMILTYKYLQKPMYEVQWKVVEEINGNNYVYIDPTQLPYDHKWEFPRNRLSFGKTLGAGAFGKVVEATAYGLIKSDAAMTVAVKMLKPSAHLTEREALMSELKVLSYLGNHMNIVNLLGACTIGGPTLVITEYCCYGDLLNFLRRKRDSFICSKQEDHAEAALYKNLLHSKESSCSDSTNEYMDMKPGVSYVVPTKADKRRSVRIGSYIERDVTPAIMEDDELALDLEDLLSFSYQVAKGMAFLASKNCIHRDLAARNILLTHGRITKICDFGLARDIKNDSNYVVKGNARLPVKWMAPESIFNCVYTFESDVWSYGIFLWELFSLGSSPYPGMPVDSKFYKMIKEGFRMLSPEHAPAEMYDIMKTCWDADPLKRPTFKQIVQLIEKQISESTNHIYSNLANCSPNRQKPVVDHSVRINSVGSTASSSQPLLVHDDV

With `CC(C)(C)c1cc(NC(=O)Nc2ccc(-c3ccc(N)nc3)s2)no1` [Example 19, 1-(5-(6-aminopyridin-3-yl)thiophen-2-yl)-3-(5-tert-butylisoxazol-3-yl)urea], the equilibrium dissociation constant (Kd) (in general, the free concentration of one partner at which half of the binding sites on the other are occupied at equilibrium, for simple one-to-one binding) in experiment [1] is 1 to 10 nM; in experiment [2], 1 to 10 nM; in experiment [3], 10 to 100 nM. Besides, the concentration for half-maximal inhibition (IC50) (as a rule, the concentration that gives 50% inhibition) in experiment [4] was greater than 500 nM. In experiment [5], the “Kinase specificty: S(10)-359 panel” value was “A (A≦0.1)”.
Consider `CC(C)(C)c1cc(NC(=O)Nc2cc(F)c(-c3ccc(N)nc3)cc2F)no1` [Example 20, 1-(4-(6-aminopyridin-3-yl)-2,5-difluorophenyl)-3-(5-tert-butylisoxazol-3-yl)urea], for which the dissociation constant (Kd) in experiment [1] is no more than 1 nM; in experiment [2] it was 1 to 10 nM; in experiment [3], no more than 10 nM. For the same compound, in experiment [4], the half-inhibitory concentration (IC50) is 1 to 10 nM. Moreover, in experiment [5], the “Kinase specificty: S(10)-359 panel” value is given as “B (0.1<B≦0.2 nM)”.
`CC(C)(C)c1cc(NC(=O)Nc2ccc(-c3cnc4c(c3)COCCN4)cc2)no1` [Example 21, 1-(5-tert-butylisoxazol-3-yl)-3-(4-(1,2,3,5-tetrahydropyrido[2,3-e][1,4]oxazepin-7-yl)phenyl)urea]: the dissociation constant (Kd) in experiment [1] was no more than 1 nM; in experiment [2] it was no more than 1 nM; in experiment [3] it was no more than 10 nM. Also, in experiment [4], the concentration for half-maximal inhibition (IC50) is 1 to 10 nM. The “Kinase specificty: S(10)-359 panel” value in experiment [5] is recorded as “B (0.1<B≦0.2 nM)”.
For the compound `CC(C)(C)c1cc(NC(=O)Nc2ccc(-c3cnc(N)c(COCCO)c3)cc2)no1` [Example 22, 1-(4-(6-amino-5-((2-hydroxyethoxy)methyl)pyridin-3-yl)phenyl)-3-(5-tert-butylisoxazol-3-yl)urea], the Kd was no more than 1 nM in experiment [1], no more than 1 nM in experiment [2] and no more than 10 nM in experiment [3]. Besides, the half-maximal inhibitory concentration (IC50) in experiment [4] is no more than 1 nM. The “Kinase specificty: S(10)-359 panel” value in experiment [5] is “B (0.1<B≦0.2 nM)”.
For the compound `Cc1nc(N)ccc1-c1ccc(NC(=O)Nc2cc(C(C)(C)C)on2)cc1` [Example 23, 1-(4-(6-amino-2-methylpyridin-3-yl)phenyl)-3-(5-tert-butylisoxazol-3-yl)urea], the Kd in experiment [1] was no more than 1 nM; in experiment [2], 1 to 10 nM; in experiment [3], no more than 10 nM. Further, the IC50 in experiment [4] is 10 to 100 nM. Also, the “Kinase specificty: S(10)-359 panel” value in experiment [5] is given as “A (A≦0.1)”.
On the same counts, the results for `Cc1cc(N)ncc1-c1ccc(NC(=O)Nc2cc(C(C)(C)C)on2)cc1` [Example 24, 1-(4-(6-amino-4-methylpyridin-3-yl)phenyl)-3-(5-tert-butylisoxazol-3-yl)urea] are no more than 1 nM, 1 to 10 nM, no more than 10 nM, 1 to 10 nM and “A (A≦0.1)”.
Take `Cc1nc(N)ccc1-c1ccc(NC(=O)Nc2cc(C(C)(C)C)on2)nc1` [Example 25, 1-(6′-amino-2′-methyl-3,3′-bipyridin-6-yl)-3-(5-tert-butylisoxazol-3-yl)urea]: the dissociation constant Kd in experiment [1] was no more than 1 nM; in experiment [2], no more than 1 nM; in experiment [3], 10 to 100 nM. Besides, in experiment [4], the IC50 was in the range of 100 to 500 nM. Besides, in experiment [5], the “Kinase specificty: S(10)-359 panel” value is reported as “A (A≦0.1)”.
`Cc1cc(N)ncc1-c1ccc(NC(=O)Nc2cc(C(C)(C)C)on2)nc1` [Example 26, 1-(6′-amino-4′-methyl-3,3′-bipyridin-6-yl)-3-(5-tert-butylisoxazol-3-yl)urea]: the figures for the Kd in experiment [1], in experiment [2] and in experiment [3] were no more than 1 nM, no more than 1 nM and no more than 10 nM, respectively. For the same compound, in experiment [4], the 50% inhibitory concentration (IC50) was in the range of 100 to 500 nM. For the same compound, the “Kinase specificty: S(10)-359 panel” value in experiment [5] was “A (A≦0.1)”.
In the case of `CC(C)(C)c1cc(NC(=O)Nc2ccc(-c3cnc(N)nc3)cc2)no1` [Example 44, 1-(4-(2-aminopyrimidin-5-yl)phenyl)-3-(5-tert-butylisoxazol-3-yl)urea], the Kd is no more than 1 nM in experiment [1], 1 to 10 nM in experiment [2] and no more than 10 nM in experiment [3]. The same compound came in with a half-inhibitory concentration (IC50) in experiment [4] of no more than 1 nM. For the same compound, the “Kinase specificty: S(10)-359 panel” value in experiment [5] is given as “B (0.1<B≦0.2 nM)”.
Turning to `Nc1ncc(-c2ccc(NC(=O)Cc3cccc(C(F)(F)F)c3)cc2)cn1` [Example 46, N-(4-(2-aminopyrimidin-5-yl)phenyl)-2-(3-(trifluoromethyl)phenyl)acetamide], the Kd in experiment [1] is 1 to 10 nM; in experiment [2], no more than 1 nM; in experiment [3], 10 to 100 nM. Besides, the IC50 in experiment [4] fell in the range of 10 to 100 nM. Moreover, the “Kinase specificty: S(10)-359 panel” value in experiment [5] is given as “A (A≦0.1)”.
In the case of `CC(C)(C)c1cc(NC(=O)Nc2ccc(-c3cnc(OCCN4CCOCC4)nc3)cc2)no1` [Example 47, 1-(5-tert-Butyl-isoxazol-3-yl)-3-{4-[2-(2-morpholin-4-yl-ethoxy)-pyrimidin-5-yl]-phenyl}-urea], the Kd in experiment [1] was in the range of 1 to 10 nM; in experiment [2], 1 to 10 nM; in experiment [3], 10 to 100 nM. Also, the IC50 in experiment [4] was in the range of 10 to 100 nM. Also, the “Kinase specificty: S(10)-359 panel” value in experiment [5] is “A (A≦0.1)”.
As to `Cc1nc(N)ncc1-c1ccc(NC(=O)Nc2cc(C(C)(C)C)on2)cc1` [Example 49, 1-(4-(2-amino-4-methylpyrimidin-5-yl)phenyl)-3-(5-tert-butylisoxazol-3-yl)urea], the Kd is no more than 1 nM in experiment [1], no more than 1 nM in experiment [2] and no more than 10 nM in experiment [3]. The compound also showed an IC50 in experiment [4] of no more than 1 nM. Further, in experiment [5], the “Kinase specificty: S(10)-359 panel” value was “B (0.1<B≦0.2 nM)”.
Consider `COc1nc(N)ncc1-c1ccc(NC(=O)Nc2cc(C(C)(C)C)on2)cc1` [Example 50, 1-[4-(2-amino-4-methoxypyrimidin-5-yl)-phenyl]-3-(5-tert-butylisoxazol-3-yl)-urea], for which the figures for the Kd in experiment [1], in experiment [2] and in experiment [3] were 1 to 10 nM, no more than 1 nM and no more than 10 nM, respectively. In experiment [4], this compound had a 50% inhibitory concentration (IC50) of no more than 1 nM. Also, in experiment [5], the “Kinase specificty: S(10)-359 panel” value is listed as “B (0.1<B≦0.2 nM)”.
As for `CC(CF)(CF)c1cc(NC(=O)Nc2ccc(-c3cnc(NCCN4CCOCC4)nc3)cc2)no1` [Example 52, 1-[5-(2-fluoro-1-fluoromethyl-1-methylethyl)isoxazol-3-yl]-3-{4-[2-(2-morpholin-4-yl-ethylamino)pyrimidin-5-yl]phenyl}urea], the Kd was no more than 1 nM in experiment [1], no more than 1 nM in experiment [2] and no more than 10 nM in experiment [3]. In experiment [4], this compound showed an IC50 of 1 to 10 nM. The “Kinase specificty: S(10)-359 panel” value in experiment [5] is “B (0.1<B≦0.2 nM)”.
